From patent US9695155B2, “Herbicidal substituted pyrimidinyloxy benzene compounds” (E. I. DU PONT DE NEMOURS AND COMPANY, priority 2013, dated 2017) come the findings set out here.

In experiment [1] the test system is kochia. Nature of the experiment: Test F preemergence. It is filed as in vivo, Kochia scoparia. To be noted: 21 days, scale 0 to 100. From the text: (§1) Seeds of plant species selected from bermudagrass (Cynodon dactylon), surinam grass (Brachiaria decumbens), large (Lg) crabgrass (Digitaria sanguinalis), crabgrass, naked (naked crabgrass, Digitaria nuda), foxtail, green (green foxtail, Setaria viridis), johnsongrass (Sorghum halepense), kochia (Kochia scoparia), morningglory (pitted morningglory, Ipomoea lacunosa), nutsedge, purple (purple nutsedge, Cyperus rotundus), ragweed (common ragweed, Ambrosia elatior), mustard, black (black mustard, Brassica nigra), guineagrass (Panicum maximum), dallisgrass (Paspalum dilatatum), barnyardgrass (Echinochloa crus-galli), sandbur (southern sandbur, Cenchrus echinatus), sowthistle (common sowthistle, Sonchus oleraceous), Italian ryegrass (Lolium multiflorum), signalgrass (broadleaf signalgrass, Brachiaria platyphylla), dayflower (Virginia (VA) dayflower, Commelina virginica), bluegrass (annual bluegrass, Poa annua), quackgrass (Elytrigia repens), mallow (common mallow, Malva sylvestris), buckwheat, wild (wild buckwheat, Polygonum convolvulus), leafy spurge (Euphorbia esula), chickweed (common chickweed, Stellaria media), wild poinsettia (Euphorbia heterophylla), and pigweed (Amaranthus retroflexus) were planted into a blend of loam soil and sand and treated preemergence with test chemicals formulated in a non-phytotoxic solvent mixture which included a surfactant.
(§2) Treated plants and controls were maintained in a greenhouse for 21 days, after which time all species were compared to controls and visually evaluated. Plant response ratings, summarized in Table F, are based on a scale of 0 to 100 where 0 is no effect and 100 is complete control. A dash (-) response means no test result.

Experiment [2] has as its system nutsedge, purple. Nature of the experiment: Test F preemergence. It is filed as in vivo, Cyperus rotundus. To be noted: 21 days, scale 0 to 100.
Description: as §1, §2

The test system of experiment [3] is sowthistle. Nature of the experiment: Test F preemergence. To be noted: 21 days, scale 0 to 100. It is filed as in vivo, Sonchus oleraceous.
Description: as §1, §2

Experiment [4] relates to crabgrass, naked. Put plainly: Test F preemergence. It is filed as in vivo, Digitaria nuda. To be noted: 21 days, scale 0 to 100.
Description: as §1, §2

The test system of experiment [5] is field poppy. Put plainly: Test D preemergence. To be noted: for pest or weed control at 16 g/ha: read-out: Plant response rating, Field Poppy. Format: in vivo, Papaver rhoeas. From the text:
(§3) Seeds of plant species selected from bluegrass (annual bluegrass, Poa annua), blackgrass (Alopecurus myosuroides), canarygrass (littleseed canarygrass, Phalaris minor), chickweed (common chickweed, Stellaria media), galium (catchweed bedstraw, Galium aparine), bromegrass, downy (downy bromegrass, Bromus tectorum), field poppy (Papaver rhoeas), field violet (Viola arvensis), green foxtail (Setaria viridis), deadnettle (henbit deadnettle, Lamium amplexicaule), Italian ryegrass (Lolium multiflorum), kochia (Kochia scoparia), lambsquarters (Chenopodium album), oilseed rape (Brassica napus), pigweed (Amaranthus retroflexus), chamomile (scentless chamomile, Matricaria inodora), Russian thistle (Salsola kali), speedwell (bird's-eye speedwell, Veronica persica), spring barley (Hordeum vulgare), spring wheat (Triticum aestivum), wild buckwheat (Polygonum convolvulus), wild mustard (Sinapis arvensis), wild oat (Avena fatua), wild radish (Raphanus raphanistrum), windgrass (Apera spica-venti), winter barley (Hordeum vulgare), and winter wheat (Triticum aestivum) were planted into a silt loam soil and treated preemergence with test chemicals formulated in a non-phytotoxic solvent mixture which included a surfactant.
(§4) At the same time, these species were planted in pots containing Redi-Earth® planting medium (Scotts Company, 14111 Scottslawn Road, Marysville, Ohio 43041) comprising spaghnum peat moss, vermiculite, wetting agent and starter nutrients and treated with postemergence applications of the test chemicals formulated in the same manner. Plants ranged in height from 2 to 18 cm (1- to 4-leaf stage). Treated plants and controls were maintained in a controlled growth environment for 7 to 21 days after which time all species were compared to controls and visually evaluated. Plant response ratings, summarized in Table D, are based on a scale of 0 to 100 where 0 is no effect and 100 is complete control. A dash (-) response means no test result.

Experiment [6] has as its system bromegrass, downy. Nature of the experiment: Test D postemergence. It is filed as in vivo, Bromus tectorum.
Description: as §3, §4

In experiment [7] the test system is Russian thistle. Put plainly: Test D postemergence. It is filed as in vivo, Salsola kali.
Description: as §3, §4

The mark [8] stands for this setting: Papaver rhoeas, pre-emergence, 31 g ai/ha, scale 0-100, read-out: Plant response rating, Field Poppy.
Where [9] appears, read: Papaver rhoeas, pre-emergence, 62 g ai/ha, scale 0-100, read-out: Plant response rating, Field Poppy.
[10] abbreviates: Papaver rhoeas, pre-emergence, 125 g ai/ha, scale 0-100, read-out: Plant response rating, Field Poppy.
Where [11] appears, read: Bromus tectorum, post-emergence, Postemergence, 31 g ai/ha, scale 0 to 100 (0 no effect, 100 complete control), read-out: Plant response rating, Bromegrass, Downy.
[12] abbreviates: Bromus tectorum, post-emergence, Postemergence, 62 g ai/ha, scale 0 to 100 (0 no effect, 100 complete control), read-out: Plant response rating, Bromegrass, Downy.
[13] abbreviates: Bromus tectorum, post-emergence, Postemergence, 125 g ai/ha, scale 0 to 100 (0 no effect, 100 complete control), read-out: Plant response rating, Bromegrass, Downy.
The mark [14] stands for this setting: Papaver rhoeas, pre-emergence, 16 g ai/ha, scale 0 (no effect) to 100 (complete control).
Where [15] appears, read: Bromus tectorum, post-emergence, Postemergence, 16 g ai/ha, scale 0 to 100 (0 no effect, 100 complete control), read-out: Plant response rating, Bromegrass, Downy.
[16] abbreviates: 31 g ai/ha, scale 0 to 100 (0 no effect, 100 complete control).
Where [17] appears, read: 62 g ai/ha, scale 0 to 100 (0 no effect, 100 complete control).
[18] abbreviates: 125 g ai/ha, scale 0 to 100 (0 no effect, 100 complete control).

On to `N#Cc1cccc(Oc2ncc(Cl)cn2)c1-n1cc(OC(F)F)cn1` [Compound 97], for which the “Plant response rating, Kochia” value in experiment [1] (16 g ai/ha), in experiment [1] (31 g ai/ha), in experiment [1] (62 g ai/ha), in experiment [1] (125 g ai/ha) and in experiment [1] (250 g ai/ha) was 100 each time. Further, the “Plant response rating, Nutsedge, Purple” value in experiment [2] (16 g ai/ha) is listed as 15; in experiment [2] (31 g ai/ha), 35; in experiment [2] (62 g ai/ha), 30; in experiment [2] (125 g ai/ha) it was 75; in experiment [2] (250 g ai/ha) it was 90. In addition, the “Plant response rating, Sowthistle” value in experiment [3] (16 g ai/ha), in experiment [3] (31 g ai/ha), in experiment [3] (62 g ai/ha), in experiment [3] (125 g ai/ha) and in experiment [3] (250 g ai/ha) was 100 each time. For the same compound, the “Plant response rating, Crabgrass, Naked” value in experiment [4] (16 g ai/ha), in experiment [4] (31 g ai/ha), in experiment [4] (62 g ai/ha), in experiment [4] (125 g ai/ha) and in experiment [4] (250 g ai/ha) was 100 in each case.

Regarding `N#Cc1cccc(Oc2ncc(Cl)cn2)c1-n1cc(Br)cn1` [Compound 52, 2-(4-bromo-1H-pyrazol-1-yl)-3-[(5-chloro-2-pyrimidinyl)oxy]benzonitrile], the pest or weed control at 31 g/ha worked out at 95% in experiment [5] (setting [8]) and 15% in experiment [6] (setting [11]). The pest or weed control at 62 g/ha in experiment [5] (setting [9]) is 80%; in experiment [6] (setting [12]) it was 20%. Also, the pest or weed control at 125 g/ha in experiment [5] (setting [10]) is 90%; in experiment [6] (setting [13]), 20%. In addition, the pest or weed control at 250 g/ha worked out at 100% in experiment [5] (Papaver rhoeas, pre-emergence, 250 g ai/ha, scale 0-100, read-out: Plant response rating, Field Poppy) and 25% in experiment [6] (Bromus tectorum, post-emergence, Postemergence, 250 g ai/ha, scale 0 to 100 (0 no effect, 100 complete control), read-out: Plant response rating, Bromegrass, Downy).

`N#Cc1cccc(Oc2ncc(Cl)cn2)c1-n1cc(OCC(F)(F)F)cn1` [Compound 274, 3-[(5-chloro-2-pyrimidinyl)oxy]-2-[4-(2,2,2-trifluoroethoxy)-1H-pyrazol-1-yl]benzonitrile]: the “Plant response rating, Kochia” value in experiment [1] (16 g ai/ha), in experiment [1] (31 g ai/ha), in experiment [1] (62 g ai/ha), in experiment [1] (125 g ai/ha) and in experiment [1] (250 g ai/ha) was 100 each time. In addition, the “Plant response rating, Nutsedge, Purple” value in experiment [2] (16 g ai/ha) turned out to be 35; in experiment [2] (31 g ai/ha), 50; in experiment [2] (62 g ai/ha), 65; in experiment [2] (125 g ai/ha), 85; in experiment [2] (250 g ai/ha), 98. In addition, the “Plant response rating, Sowthistle” value in experiment [3] (16 g ai/ha), in experiment [3] (31 g ai/ha), in experiment [3] (62 g ai/ha), in experiment [3] (125 g ai/ha) and in experiment [3] (250 g ai/ha) was 100 each time. Further, the pest or weed control at 16 g/ha in experiment [5] (setting [14]) was 75%; in experiment [6] (setting [15]) it was 20%. Moreover, the results for the pest or weed control at 31 g/ha in experiment [5] (setting [8]) and in experiment [6] (setting [11]) were 100% and 25%, respectively. In addition, the results for the pest or weed control at 62 g/ha in experiment [5] (setting [9]) and in experiment [6] (setting [12]) were 100% and 35%, respectively. The pest or weed control at 125 g/ha in experiment [5] (setting [10]) was 100%; in experiment [6] (setting [13]), 40%. Also, the “Plant response rating, Crabgrass, Naked” value in experiment [4] (16 g ai/ha), in experiment [4] (31 g ai/ha), in experiment [4] (62 g ai/ha), in experiment [4] (125 g ai/ha) and in experiment [4] (250 g ai/ha) was 100 in each case.

Turning to `Fc1cccc(Oc2ncc(Cl)cn2)c1-n1cc(C(F)F)nn1` [Compound 141, 5-chloro-2-[2-[4-(difluoromethyl)-1H-1,2,3-triazol-1-yl]-3-fluorophenoxy]pyrimidine], the pest or weed control at 16 g/ha in experiment [5] (setting [14]) worked out at 98%; in experiment [6] (setting [15]), 15%. Besides, the values for the pest or weed control at 31 g/ha in experiment [5] (setting [8]) and in experiment [6] (setting [11]) were 100% and 20%, respectively. The pest or weed control at 62 g/ha came to 100% in experiment [5] (setting [9]) and 30% in experiment [6] (setting [12]). For the same compound, the pest or weed control at 125 g/ha in experiment [5] (setting [10]) was found to be 100%; in experiment [6] (setting [13]), 45%. The “Plant response rating, Russian Thistle” value in experiment [7] (16 g ai/ha, scale 0-100) is on record as 40; in experiment [7] (setting [16]), 40; in experiment [7] (setting [17]), 85; in experiment [7] (setting [18]) it was 95.

As to `FCc1cccc(Oc2ncc(Cl)cn2)c1-n1cc(I)cn1` [Compound 245], the “Plant response rating, Field Poppy” value is listed as 100 in experiment [5] (16 g ai/ha, scale 0 (no effect) to 100 (complete control)); 100 in experiment [5] (31 g ai/ha, scale 0-100); 100 in experiment [5] (62 g ai/ha, scale 0-100); 100 in experiment [5] (125 g ai/ha, scale 0-100). For the same compound, the “Plant response rating, Bromegrass, Downy” value in experiment [6] (Postemergence, 62 g ai/ha, scale 0 to 100 (0 no effect, 100 complete control)) came to 25; in experiment [6] (Postemergence, 31 g ai/ha, scale 0 to 100 (0 no effect, 100 complete control)), 20; in experiment [6] (Postemergence, 125 g ai/ha, scale 0 to 100 (0 no effect, 100 complete control)), 30; in experiment [6] (postemergence, 16 g ai/ha, scale 0 to 100, 0 no effect, 100 complete control), 20. The “Plant response rating, Russian Thistle” value in experiment [7] (16 g ai/ha, scale 0-100) is given as 55; in experiment [7] (setting [16]), 75; in experiment [7] (setting [17]), 70; in experiment [7] (setting [18]), 80.
